Assay results from patent US20040142317A1, “Use of amino acid transporter atbo,+ as a delivery system for drugs and prodrugs” (priority 2003, published 2004).
Several values for one entry are separate records, joined by “and”; a condition that tells them apart may be missing. Identical values can stand only once.

What was measured:
mouse ATB^0,+ [1] = target: T1, mouse ATB^0,+ (Mus musculus, UniProt Q9JMA9); settings: for inward current in the absence of Cl− (sodium gluconate) / inward current in the absence of Na+ (NMDG chloride) / Current in X. laevis oocytes: compound 1 mM; for Current in X. laevis oocytes: NaCl medium pH 7.5, voltage clamp; for K0.5 (concentration inducing half-maximal current; Michaelis-Menten constant): oocytes, membrane potential −50 mV; for Current in X. laevis oocytes (nA), L-isomer: L-amino acid 1 mM, NaCl pH 7.5
T1 sequence (Q9JMA9 1-638): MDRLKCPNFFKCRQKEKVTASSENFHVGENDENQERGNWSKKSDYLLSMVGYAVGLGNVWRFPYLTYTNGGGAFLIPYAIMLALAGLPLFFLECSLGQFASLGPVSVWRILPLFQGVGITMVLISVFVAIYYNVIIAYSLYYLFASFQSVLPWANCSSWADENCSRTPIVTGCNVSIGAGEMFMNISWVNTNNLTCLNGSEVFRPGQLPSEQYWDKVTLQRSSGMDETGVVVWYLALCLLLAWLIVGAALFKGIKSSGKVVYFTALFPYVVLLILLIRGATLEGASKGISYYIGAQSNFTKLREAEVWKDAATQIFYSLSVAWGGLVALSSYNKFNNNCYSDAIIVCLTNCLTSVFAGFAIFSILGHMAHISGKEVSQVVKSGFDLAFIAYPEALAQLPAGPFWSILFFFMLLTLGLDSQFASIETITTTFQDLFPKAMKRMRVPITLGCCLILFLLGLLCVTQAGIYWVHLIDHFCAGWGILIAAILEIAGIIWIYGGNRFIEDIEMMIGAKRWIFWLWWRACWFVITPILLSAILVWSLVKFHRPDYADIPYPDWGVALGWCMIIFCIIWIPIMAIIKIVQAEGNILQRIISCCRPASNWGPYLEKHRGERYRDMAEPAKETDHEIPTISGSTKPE

mouse ATB^0,+ [2] = target: T1, mouse ATB^0,+
mouse ATB^0,+ [3] = target: T1, mouse ATB^0,+; settings: for effect on ATB^0,+-mediated glycine transport (in words): glycine 10 μM, HRPE cells
mouse ATB^0,+ [4] = target: T1, mouse ATB^0,+; assay: Transport of radiolabeled substrates in HRPE cells expressing cloned mouse ATB0,+; assay type: cell-based; settings: HRPE cells
mouse ATB^0,+ [5] = target: T1, mouse ATB^0,+; assay: Inhibition of ATB0,+-specific [3H]-L-NNA transport by amino acids in HRPE cells; assay type: cell-based; settings: amino acids 5 mM; [3H]-L-NNA 10 μM
ATB^0 = target: T2, ATB^0 (Homo sapiens, UniProt Q15758); assay: cell-based
T2 sequence (Q15758 1-541): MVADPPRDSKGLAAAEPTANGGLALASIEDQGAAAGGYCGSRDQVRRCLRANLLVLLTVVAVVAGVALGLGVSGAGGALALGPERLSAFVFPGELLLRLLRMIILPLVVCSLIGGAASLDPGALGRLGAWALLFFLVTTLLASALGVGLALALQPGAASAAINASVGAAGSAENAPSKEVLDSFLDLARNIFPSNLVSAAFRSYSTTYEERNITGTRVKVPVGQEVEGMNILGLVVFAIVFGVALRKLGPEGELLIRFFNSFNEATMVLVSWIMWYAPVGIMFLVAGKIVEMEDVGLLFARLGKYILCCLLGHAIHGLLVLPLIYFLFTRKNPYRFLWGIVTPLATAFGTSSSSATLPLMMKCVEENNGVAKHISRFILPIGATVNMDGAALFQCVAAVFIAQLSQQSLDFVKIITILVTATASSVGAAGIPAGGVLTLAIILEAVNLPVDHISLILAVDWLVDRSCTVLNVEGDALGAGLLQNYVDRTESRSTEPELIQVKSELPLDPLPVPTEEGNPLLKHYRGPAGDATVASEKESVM

SMILES | Current in X. laevis oocytes (mouse ATB^0,+ [1]) | Current in X. laevis oocytes (nA), L-isomer (mouse ATB^0,+ [1]) | other results
CSC(N)=NCCC[C@H](N)C(=O)O [L-MTC] | 116±34 nA and 118 ± 34 nA |  | inward current in the absence of Cl− (sodium gluconate) (mouse ATB^0,+ [1]): no measurable currents; inward current in the absence of Na+ (NMDG chloride) (mouse ATB^0,+ [1]): no measurable currents; K0.5 (concentration inducing half-maximal current; Michaelis-Menten constant) (mouse ATB^0,+ [1]): 1.36 ± 0.08 mM
CSCC[C@H](N)C(=O)O [L-Methionine, Methionine] |  | 278 ± 26 nA | 
NC(=NCCC[C@H](N)C(=O)OCc1ccccc1)N[N+](=O)[O-] [L-NABE] | 16 ± 2 nA |  | 
COC(=O)[C@@H](N)CCCNC(=N)N[N+](=O)[O-] [L-NAME] | 11 ± 2 nA |  | 
CN(C)C(N)=NCCC[C@H](N)C(=O)O [L-NDMA] | 85 ± 15 nA |  | 
CC(=N)NCCCC[C@H](N)C(=O)O [L-NIL] | 89 ± 18 nA |  | inward current in the absence of Cl− (sodium gluconate) (mouse ATB^0,+ [1]): ~10 nA; inward current in the absence of Na+ (NMDG chloride) (mouse ATB^0,+ [1]): no measurable inward current; K0.5 (concentration inducing half-maximal current; Michaelis-Menten constant) (mouse ATB^0,+ [1]): 2.72 ± 0.29 mM
CC(=N)NCCC[C@H](N)C(=O)O [L-NIO] | 71 ± 16 nA |  | K0.5 (concentration inducing half-maximal current; Michaelis-Menten constant) (mouse ATB^0,+ [1]): 2.24 ± 0.35 mM
CCNC(=N)NCCC[C@H](N)C(=O)O [L-NMEA] | 138 ± 16 nA |  | 
CNC(=N)NCCC[C@H](N)C(=O)O [L-NMMA] | 411 ± 76 nA |  | activity (mouse ATB^0,+ [2]): 36%
N=C(NCCC[C@H](N)C(=O)O)N[N+](=O)[O-] [L-NNA, N^ω-nitro-L-arginine] | 200 ± 92 nA |  | IC50 (mouse ATB^0,+ [3]): 560 ± 40 µM; Michaelis-Menten constant (Kt) of transport via mouse ATB^0,+ (mouse ATB^0,+ [4]; radiolabeled substrate): 0.75 ± 0.10 mM; transport in ATB^0,+ cDNA-transfected cells compared to vector-transfected cells (mouse ATB^0,+ [4]; radiolabeled substrate): 4 fold; activity (mouse ATB^0,+ [2]): 21%
NC(=S)NCCC[C@H](N)C(=O)O [L-TC] | 497 ± 104 nA |  | 
CC(C)[C@H](N)C(=O)O [L-Valine, Valine] |  | 310 ± 24 nA | 
CC(C)C[C@H](N)C(=O)O [Leucine] |  | 187 ± 14 nA | 
NCCCC[C@H](N)C(=O)O [Lysine] | 545 ± 95 nA | 321 ± 34 nA | 
CNC(C)(C)C(=O)O [MeAIB] |  |  | inhibition of ATB^0,+-specific L-NNA transport (mouse ATB^0,+ [5]): did not inhibit
NCCC[C@H](N)C(=O)O [Ornithine] | 131 ± 27 nA |  | 
N[C@@H](Cc1ccccc1)C(=O)O [Phenylalanine] |  | 275 ± 58 nA | Ki (ATB^0): 4230 ± 999 µM; Ki (mouse ATB^0,+ [3]): 68.6 ± 2.4 µM
N[C@@H](CO)C(=O)O [Serine] |  | 470 ± 42 nA | inhibition of ATB^0,+-specific L-NNA transport (mouse ATB^0,+ [5]): inhibition
C[C@@H](O)[C@H](N)C(=O)O [Threonine] |  | 233 ± 12 nA | 
N[C@@H](Cc1c[nH]c2ccccc12)C(=O)O [Tryptophan] |  | 112 ± 4 nA | 
C[N+](C)(C)CC(=O)O [betaine] |  |  | effect on ATB^0,+-mediated glycine transport (in words) (mouse ATB^0,+ [3]): little or no effect
CC(C)[C@H](N)C(=O)OCCOCn1cnc2c(=O)[nH]c(N)nc21 [valacyclovir, L-valine α-ester of acyclovir] |  |  | transport in ATB^0,+-expressing cells versus vector-transfected cells (in words) (mouse ATB^0,+ [4]; [14C]phenylglycine 10 μM or [8-3H]-valacyclovir 1.25 μM): three times higher
NCCCC(=O)O [γ-Aminobutyrate, γ-aminobutyrate] |  |  | effect on ATB^0,+-mediated glycine transport (in words) (mouse ATB^0,+ [3]): little or no effect
